Values joined by “and” are separate entries in the source; they are usually repeats but may differ in a detail not shown here. Identical values can stand only once. Like-named read-outs stand apart in the source and are kept apart here.
Test: Plasma 5-HTP pharmacokinetics of 24 h continuous IV 5-HTP infusion, Phase 1 study
Type: in vivo, human
Protocol: Study Design. A Phase 1, randomized, double-blind, placebo-controlled, single ascending dose study was performed to evaluate the safety, tolerability and pharmacokinetics (PK) of 5-HTP solution for IV infusion when administered to healthy adults taking a selective serotonin reuptake inhibitor (SSRI), escitalopram, for 3 weeks. Study duration was 37±3 days. The total individual subject participation time was no more than 66 days including screening, dosing, and follow-up phases. The IV infusion duration was 24 h, dosing with 5-HTP solution for IV infusion (see Example 3, above) or placebo (0.9% saline).
Subjects. A total of 39 healthy male and female subjects were randomized across 5 cohorts, each with 8 subjects (6 active:2 placebo) per cohort except for Cohort 5 (5 active:2 placebo). For each cohort, first 2 sentinel subjects received IV 5-HTP (N=1) or placebo (N=1) prior to dosing of the remaining 5 or 6 subjects.
IV infusion. 5-HTP solution for IV infusion or placebo was administered IV at a constant rate or ramped rate of infusion over 24 hr.
Constant rate infusion. 5-HTP solution for IV infusion was administered at constant infusion rates of 1 mg/kg/24 hr in Cohort 1 and 3 mg/kg/24 hr in Cohort 2. The infusion rate was 41.67 ml/h.
Ramp rate infusion. To gradually elevate 5-HTP plasma levels, 5-HTP solution for IV infusion was administered at a ramp rate of infusion for Cohorts 3, Cohort 4, and Cohort 5, at average 5-HTP infusion rates of 3 mg/kg/24 hr, 2 mg/kg/24 hr and 1 mg/kg/24 hr, respectively. The infusion volume rates were 13.89 ml/hr at T=0-4 hr; 27.78 ml/hr at T=4-8 hr; 41.67 ml/hr at T=8-12 hr; and 55.55 ml/hr at T=12-24 hr.
Bioanalysis. Plasma samples for 5-HTP analysis were collected and stored at −80° C. Plasma samples for escitalopram analysis were collected and stored at −80° C. Plasma 5-HTP levels and plasma escitalopram levels were measured using standard liquid chromatography with tandem mass spectrometry (LC-MS-MS) methods. For 5-HTP analysis, plasma samples were collected at T=0, 1, 2, 3, 4, 5, 6, 8, 10, 12, 14, 22, 24, 26, 28, 30, 32, 36, and 48 hr. For escitalopram analysis, plasma samples were collected on Day 7, Day 21 (pre-infusion), Day 22 (end of infusion), and Day 23 (24 hr after end of infusion). Plasma escitalopram levels were averaged across days 21-23, during the time-period when subjects were admitted to the clinic and received 5-HTP solution for IV infusion or placebo.
Statistical analysis. Subjects receiving placebo across the 5 cohorts (N=2 per cohort) were pooled. Descriptive statistics were calculated for each quantitative variable within each treatment group and placebo (n, mean, standard deviation, median, minimum, maximum).
PK analysis of plasma 5-HTP. The PK population included subjects who received 5-HTP solution for IV infusion and completed the 24 h infusion. PK parameters were computed for each Cohort/dose/infusion paradigm. Placebo data from all cohorts were pooled.

[1] = both sexes, human, plasma, intravenous, 1 mg/kg, individual subjects, Constant rate 1 mg/kg/24 hr
[2] = both sexes, human, plasma, intravenous, 1 mg/kg, individual subjects, Ramp rate 1 mg/kg/24 hr
[3] = both sexes, human, plasma, intravenous, 2 mg/kg, individual subjects, Ramp rate 2 mg/kg/24 hr
[4] = both sexes, human, plasma, intravenous, 3 mg/kg, individual subjects, Constant rate 3 mg/kg/24 hr
[5] = both sexes, human, plasma, intravenous, 3 mg/kg, individual subjects, Ramp rate 3 mg/kg/24 hr
[6] = both sexes, human, plasma, iv, 1 mg/kg, Cohort 1, constant rate 1 mg/kg/24 hr IV, healthy adults on escitalopram, mean, N=6
[7] = both sexes, human, plasma, iv, 1 mg/kg, Cohort 5, ramp rate 1 mg/kg/24 hr IV, healthy adults on escitalopram, mean, N=5
[8] = both sexes, human, plasma, iv, 2 mg/kg, Cohort 4, ramp rate 2 mg/kg/24 hr IV, healthy adults on escitalopram, mean, N=6
[9] = both sexes, human, plasma, iv, 3 mg/kg, Cohort 2, constant rate 3 mg/kg/24 hr IV, healthy adults on escitalopram, mean, N=4 completers
[10] = both sexes, human, plasma, iv, 3 mg/kg, Cohort 3, ramp rate 3 mg/kg/24 hr IV, healthy adults on escitalopram, mean, N=6
[11] = individual subjects, Constant rate 1 mg/kg/24 hr
[12] = individual subjects, Constant rate 3 mg/kg/24 hr
[13] = individual subjects, Ramp rate 1 mg/kg/24 hr
[14] = individual subjects, Ramp rate 2 mg/kg/24 hr
[15] = individual subjects, Ramp rate 3 mg/kg/24 hr

SMILES: N[C@@H](Cc1c[nH]c2ccc(O)cc12)C(=O)O [5-HTP, 5-hydroxytryptophan]
- differences in CAve, AUCInf or AUCLast between constant rate and ramp rate infusion (1 mg/kg/24 hr or 3 mg/kg/24 hr average infusion rates, p>0.05, unpaired t-test): no significant differences
- CAve (0-24 h) (Cohort 1, constant rate 1 mg/kg/24 hr IV, healthy adults on escitalopram, mean, N=6): 94 ng/mL
- initial 5-HTP plasma levels, T=1 h (Cohort 2, constant 3 mg/kg/24 hr, the 2 discontinued subjects): 304 ng/mL
- CAve (0-24 h) (Cohort 2, constant rate 3 mg/kg/24 hr IV, healthy adults on escitalopram, mean, N=4 completers): 268 ng/mL
- CAve (0-24 h) (Cohort 4, ramp rate 2 mg/kg/24 hr IV, healthy adults on escitalopram, mean, N=6): 160 ng/mL
- CAve (0-24 h) (Cohort 5, ramp rate 1 mg/kg/24 hr IV, healthy adults on escitalopram, mean, N=5): 82 ng/mL
- AUC(0-inf) [1]: 2.92 µg·h/mL
- AUC(0-t) [1]: 2.83 µg·h/mL
- CMax (both sexes, human, plasma, intravenous, 1 mg/kg, individual subjects, Constant rate 1 mg/kg/24 hr, read-out: CMax): 118 ng/mL
- AUC(0-inf) [2]: 2.81 µg·h/mL
- AUC(0-t) [2]: 2.77 µg·h/mL
- CMax (both sexes, human, plasma, intravenous, 1 mg/kg, individual subjects, Ramp rate 1 mg/kg/24 hr, read-out: CMax): 179 ng/mL
- AUC(0-inf) [3]: 6.65 µg·h/mL
- AUC(0-t) [3]: 6.54 µg·h/mL
- CMax (both sexes, human, plasma, intravenous, 2 mg/kg, individual subjects, Ramp rate 2 mg/kg/24 hr, read-out: CMax): 407 ng/mL
- AUC(0-inf) [4]: 8 µg·h/mL
- AUC(0-t) [4]: 7.96 µg·h/mL
- CMax (both sexes, human, plasma, intravenous, 3 mg/kg, individual subjects, Constant rate 3 mg/kg/24 hr, read-out: CMax): 397 ng/mL
- AUC(0-inf) [5]: 11.2 µg·h/mL
- AUC(0-t) [5]: 11.1 µg·h/mL
- CMax (both sexes, human, plasma, intravenous, 3 mg/kg, individual subjects, Ramp rate 3 mg/kg/24 hr, read-out: CMax): 613 ng/mL
- AUC(0-inf) [6]: 2.97 µg·h/mL
- AUC(0-t) [6]: 2.91 µg·h/mL
- half-life [6]: 3.71 h
- CMax (both sexes, human, plasma, iv, 1 mg/kg, Cohort 1, constant rate 1 mg/kg/24 hr IV, healthy adults on escitalopram, mean, N=6, read-out: CMax): 141 ng/mL
- AUC(0-inf) [7]: 3.29 µg·h/mL
- AUC(0-t) [7]: 3.24 µg·h/mL
- half-life [7]: 4.52 h
- CMax (both sexes, human, plasma, iv, 1 mg/kg, Cohort 5, ramp rate 1 mg/kg/24 hr IV, healthy adults on escitalopram, mean, N=5, read-out: CMax): 209 ng/mL
- AUC(0-inf) [8]: 6.44 µg·h/mL
- AUC(0-t) [8]: 6.33 µg·h/mL
- half-life [8]: 4.4 h
- CMax (both sexes, human, plasma, iv, 2 mg/kg, Cohort 4, ramp rate 2 mg/kg/24 hr IV, healthy adults on escitalopram, mean, N=6, read-out: CMax): 395 ng/mL
- AUC(0-inf) [9]: 8.85 µg·h/mL
- AUC(0-t) [9]: 8.8 µg·h/mL
- half-life [9]: 4.84 h
- CMax (both sexes, human, plasma, iv, 3 mg/kg, Cohort 2, constant rate 3 mg/kg/24 hr IV, healthy adults on escitalopram, mean, N=4 completers, read-out: CMax): 427 ng/mL
- AUC(0-inf) [10]: 11 µg·h/mL
- AUC(0-t) [10]: 10.9 µg·h/mL
- half-life [10]: 5.1 h
- CMax (both sexes, human, plasma, iv, 3 mg/kg, Cohort 3, ramp rate 3 mg/kg/24 hr IV, healthy adults on escitalopram, mean, N=6, read-out: CMax): ~592 ng/mL
- time to average steady state plasma levels after start of infusion (constant 5-HTP infusion rates 1 mg/kg/24 hr and 3 mg/kg/24 hr): approximately 4 h
- concentration at 1 h (human, plasma, intravenous, 3 mg/kg/24 hr, Cohort 2, constant 3 mg/kg/24 hr, the 2 discontinued subjects, read-out: initial 5-HTP plasma levels, T=1 h): 0.248 µg/mL
- AUCInf [11]: 2.55136 µg·h/mL and 2.93009 µg·h/mL and 3.83268 µg·h/mL and 2.23441 µg·h/mL and 3.35107 µg·h/mL
- AUCLast [11]: 2.53016 µg·h/mL and 2.8858 µg·h/mL and 3.76218 µg·h/mL and 2.18563 µg·h/mL and 3.29136 µg·h/mL
- CMax [11]: 112 ng/mL and 143 ng/mL and 189 ng/mL and 114 ng/mL and 169 ng/mL
- AUCInf [12]: 9.78113 µg·h/mL and 7.03923 µg·h/mL and 10.59749 µg·h/mL
- AUCLast [12]: 9.69071 µg·h/mL and 6.99932 µg·h/mL and 10.53775 µg·h/mL
- CMax [12]: 480 ng/mL and 320 ng/mL and 512 ng/mL
- AUCInf [13]: 4.39983 µg·h/mL and 3.86284 µg·h/mL and 2.80747 µg·h/mL and 2.57227 µg·h/mL
- AUCLast [13]: 4.3451 µg·h/mL and 3.79902 µg·h/mL and 2.76778 µg·h/mL and 2.50593 µg·h/mL
- CMax [13]: 266 ng/mL and 247 ng/mL and 192 ng/mL and 160 ng/mL
- AUCInf [14]: 6.25418 µg·h/mL and 6.20711 µg·h/mL and 6.3168 µg·h/mL and 6.04368 µg·h/mL and 7.1342 µg·h/mL
- AUCLast [14]: 6.19176 µg·h/mL and 6.09521 µg·h/mL and 6.24516 µg·h/mL and 5.95575 µg·h/mL and 6.96801 µg·h/mL
- CMax [14]: 373 ng/mL and 352 ng/mL and 385 ng/mL and 414 ng/mL and 437 ng/mL
- AUCInf [15]: 11.39396 µg·h/mL and 13.78666 µg·h/mL and 10.7869 µg·h/mL and 8.42771 µg·h/mL and 10.15261 µg·h/mL
- AUCLast [15]: 11.31089 µg·h/mL and 13.69851 µg·h/mL and 10.73877 µg·h/mL and 8.35062 µg·h/mL and 10.09828 µg·h/mL
- CMax [15]: 660 ng/mL and 679 ng/mL and 644 ng/mL and 454 ng/mL and 502 ng/mL
- time to average steady state plasma levels (variable (ramp) infusion, average rate 1-, 2-, and 3 mg/kg/24 hr): 14 to 24 h
